In patent publication US9931327B2, “Derivatives of 1-phenyl-2-pyridinyl alkyl alcohols as phosphodiesterase inhibitors” (Chiesi Farmaceutici S.p.A., priority 2011, dated 2018):
Counter-ions that a name gives are not always drawn. Like-named read-outs stand apart in the source and are kept apart here.

Tested on: LPS-induced TNF-α release in peripheral blood mononuclear cells (PBMCs)
Assay: In vitro determination of PDE4 inhibitory activity in the PBMCs assay (LPS-induced TNF-α release)
Type: cell-based, human
Settings: PBMC, read-out: PDE4 inhibition (IC50, 50% inhibition of LPS-induced TNF-α release)
Method: The assay, which is based on the known inhibitory activity exerted by PDE4 inhibitors on the lipopolyshaccarides (LPS)-induced tumour necrosis factor-alpha (TNF-α release in peripheral blood mononuclear cells (PBMCs), was performed according to a method previously described (Hatzelmann A et al., J. Pharmacol. Exp. Ther., 2001; 297:267-279; and Draheim R et al., J. Pharmacol. Exp. Ther., 2004; 308:555-563, which are incorporated herein by reference in their entireties). Cryopreserved human PBMCs, (100 l/well) were incubated in 96-well plates (10^5 cells/well), for 30 minutes, in the presence or absence (50 microl) of the test compounds whose concentrations ranged from 10^−12 M to 10^−6 M or from […] to 10^−7 M. Subsequently, LPS (3 ng/ml) was added.
After 18 hours of incubation at 37° C. in a humidified incubator under an atmosphere of 95% air and 5% CO2, culture medium was collected and TNF-α measured by ELISA. The results of the tested compounds, representatives of the invention, expressed as mean±95% confidence limits of the molar concentration of the test compound producing 50% inhibition of LPS-induced TNF-α release (IC50) are shown in the following Table: […]

[1] = human PBMCs, LPS 3 ng/ml, 18 hours, TNF-α by ELISA

| Compound | IC50 [1] [pM] | IC50 (Homo sapiens, 18 h) [pM] |
| --- | --- | --- |
| CN(C)C(=O)c1cccc(S(=O)(=O)N2CCOC(C(=O)O[C@@H](Cc3c(Cl)c[n+]([O-])cc3Cl)c3ccc(OC(F)F)c(OCC4CC4)c3)C2)c1 (stereo partly drawn) [Compound 78, 3,5-dichloro-4-((2S)-2-(3-(cyclopropylmethoxy)-4-(difluoromethoxy)phenyl)-2-(4-(3-(dimethylcarbamoyl)phenylsulfonyl)morpholine-2-carbonyloxy)ethyl)pyridine 1-oxide] | 100 to 1000 | – |
| CN(C)C(=O)c1cccc(CS(=O)(=O)N2CCS[C@H]2C(=O)O[C@@H](Cc2c(Cl)c[n+]([O-])cc2Cl)c2ccc(OC(F)F)c(OCC3CC3)c2)c1 [Compound 295, 3,5-dichloro-4-((S)-2-(3-(cyclopropylmethoxy)-4-(difluoro-methoxy)phenyl)-2-((S)-3-(3-(dimethylcarbamoyl)benzylsulfonyl)-thiazolidine-2-carbonyloxy)ethyl)pyridine 1-oxide] | 100 to 1000 | – |
| CN1CCN(C(=O)c2ccc(S(=O)(=O)N3CCSC3C(=O)O[C@@H](Cc3c(Cl)c[n+]([O-])cc3Cl)c3ccc(OC(F)F)c(OCC4CC4)c3)cc2)CC1 (stereo partly drawn) [Compound 126, 3,5-dichloro-4-((2S)-2-(3-(cyclopropylmethoxy)-4-(difluoromethoxy)phenyl)-2-(3-(4-(4-methylpiperazine-1-carbonyl)phenylsulfonyl)thiazolidine-2-carbonyloxy)ethyl)pyridine 1-oxide] | 100 to 1000 | – |
| Nc1ccc(S(=O)(=O)N2CCS[C@@H]2C(=O)O[C@@H](Cc2c(Cl)c[n+]([O-])cc2Cl)c2ccc(OC(F)F)c(OCC3CC3)c2)cc1 [Compound 151, 4-((S)-2-((R)-3-(4-aminophenylsulfonyl)thiazolidine-2-carbonyloxy)-2-(3-(cyclopropylmethoxy)-4-(difluoromethoxy)phenyl)ethyl)-3,5-dichloropyridine 1-oxide] | – | 100 to 1000 |
| CN(C)C(=O)c1ccc(S(=O)(=O)N2CCSC2C(=O)O[C@@H](Cc2c(Cl)c[n+]([O-])cc2Cl)c2ccc(OC(F)F)c(OCC3CC3)c2)cc1 (stereo partly drawn) [Compound 125, 3,5-dichloro-4-((2S)-2-(3-(cyclopropylmethoxy)-4-(difluoromethoxy)phenyl)-2-(3-(4-(dimethylcarbamoyl)phenylsulfonyl)thiazolidine-2-carbonyloxy)ethyl)pyridine 1-oxide] | 100 to 1000 | – |
| CNC(=O)c1cc(S(=O)(=O)N2CCS[C@H]2C(=O)O[C@@H](Cc2c(Cl)c[n+]([O-])cc2Cl)c2ccc(OC(F)F)c(OCC3CC3)c2)cn1C [Compound 241, 3,5-dichloro-4-((S)-2-(3-(cyclopropylmethoxy)-4-(difluoromethoxy)phenyl)-2-((S)-3-(1-methyl-5-(methylcarbamoyl)-1H-pyrrol-3-ylsulfonyl)thiazolidine-2-carbonyloxy)ethyl)pyridine 1-oxide] | < 100 | – |
| O=C(O[C@@H](Cc1c(Cl)c[n+]([O-])cc1Cl)c1ccc(OC(F)F)c(OCC2CC2)c1)[C@@H]1CCCCN1S(=O)(=O)c1ccc(N2CCOCC2)nc1 [Compound 111, 3,5-dichloro-4-((S)-2-(3-(cyclopropylmethoxy)-4-(difluoromethoxy)phenyl)-2-((S)-1-(6-morpholinopyridin-3-ylsulfonyl)piperidine-2-carbonyloxy)ethyl)pyridine 1-oxide] | 100 to 1000 | – |
| N#Cc1ccc(S(=O)(=O)N2CCS[C@H]2C(=O)O[C@@H](Cc2c(Cl)c[n+]([O-])cc2Cl)c2ccc(OC(F)F)c(OCC3CC3)c2)cc1 [Compound 206, 3,5-dichloro-4-((S)-2-((S)-3-(4-cyanophenylsulfonyl)thiazolidine-2-carbonyloxy)-2-(3-(cyclopropylmethoxy)-4-(difluoromethoxy)phenyl)ethyl)pyridine 1-oxide] | < 100 | – |
| Nc1ccc(S(=O)(=O)N2CCOC(C(=O)O[C@@H](Cc3c(Cl)c[n+]([O-])cc3Cl)c3ccc(OC(F)F)c(OCC4CC4)c3)C2)cc1 (stereo partly drawn) [Compound 139, 4-((2S)-2-(4-(4-aminophenylsulfonyl)morpholine-2-carbonyloxy)-2-(3-(cyclopropylmethoxy)-4-(difluoromethoxy)phenyl)ethyl)-3,5-dichloropyridine 1-oxide] | < 100 | – |
| COC(=O)c1ccc(S(=O)(=O)N2CCSC2C(=O)O[C@@H](Cc2c(Cl)c[n+]([O-])cc2Cl)c2ccc(OC(F)F)c(OCC3CC3)c2)s1 (stereo partly drawn) [Compound 87, 3,5-dichloro-4-((2S)-2-(3-(cyclopropylmethoxy)-4-(difluoromethoxy)phenyl)-2-(3-(5-(methoxycarbonyl)thiophen-2-ylsulfonyl)thiazolidine-2-carbonyloxy)ethyl)pyridine 1-oxide] | 100 to 1000 | – |
| COc1cc(C)ccc1S(=O)(=O)N1CCS[C@H]1C(=O)O[C@@H](Cc1c(Cl)c[n+]([O-])cc1Cl)c1ccc(OC(F)F)c(OCC2CC2)c1 [Compound 106, 3,5-dichloro-4-((S)-2-(3-(cyclopropylmethoxy)-4-(difluoromethoxy)phenyl)-2-((S)-3-(2-methoxy-4-methylphenylsulfonyl)thiazolidine-2-carbonyloxy)ethyl)pyridine 1-oxide] | < 100 | – |
| CN(C)C(=O)c1cccc(S(=O)(=O)N2CCSCC2C(=O)O[C@@H](Cc2c(Cl)c[n+]([O-])cc2Cl)c2ccc(OC(F)F)c(OCC3CC3)c2)c1 (stereo partly drawn) [Compound 80, 3,5-dichloro-4-((2S)-2-(3-(cyclopropylmethoxy)-4-(difluoromethoxy)phenyl)-2-(4-(3-(dimethylcarbamoyl)phenylsulfonyl)thiomorpholine-3-carbonyloxy)ethyl)pyridine 1-oxide] | 100 to 1000 | – |
| CN1CCOc2ccc(S(=O)(=O)N3CCS[C@H]3C(=O)O[C@@H](Cc3c(Cl)c[n+]([O-])cc3Cl)c3ccc(OC(F)F)c(OCC4CC4)c3)cc21 [Compound 108, 3,5-dichloro-4-((S)-2-(3-(cyclopropylmethoxy)-4-(difluoromethoxy)phenyl)-2-((S)-3-(4-methyl-3,4-dihydro-2H-benzo[b][1,4]oxazin-6-ylsulfonyl)thiazolidine-2-carbonyloxy)ethyl)pyridine 1-oxide] | 100 to 1000 | – |
| CS(=O)(=O)N(CCN1CCOCC1)c1ccc(S(=O)(=O)N2CCSC2C(=O)O[C@@H](Cc2c(Cl)c[n+]([O-])cc2Cl)c2ccc(OC(F)F)c(OCC3CC3)c2)cc1 (stereo partly drawn) [Compound 143, 3,5-dichloro-4-((2S)-2-(3-(cyclopropylmethoxy)-4-(difluoromethoxy)phenyl)-2-(3-(4-(N-(2-morpholinoethyl)methylsulfonamido)phenylsulfonyl)thiazolidine-2-carbonyloxy)ethyl)pyridine 1-oxide formate] | 100 to 1000 | – |
| CS(=O)(=O)Nc1cc(C(=O)N2CCC[C@H]2C(=O)O[C@@H](Cc2c(Cl)c[n+]([O-])cc2Cl)c2ccc(OC(F)F)c(OCC3CC3)c2)ccc1OCC1CC1 [Compound 19, 3,5-dichloro-4-((S)-2-((S)-1-(4-(cyclopropylmethoxy)-3-(methylsulfonamido)benzoyl)pyrrolidine-2-carbonyloxy)-2-(3-(cyclopropylmethoxy)-4-(difluoromethoxy)phenyl)ethyl)pyridine 1-oxide] | 1000 to 10000 | – |
| CS(=O)(=O)c1ccc(S(=O)(=O)N2CCS[C@H]2C(=O)O[C@@H](Cc2c(Cl)c[n+]([O-])cc2Cl)c2ccc(OC(F)F)c(OCC3CC3)c2)cc1 [Compound 109, 3,5-dichloro-4-((S)-2-(3-(cyclopropylmethoxy)-4-(difluoromethoxy)phenyl)-2-((S)-3-(4-(methylsulfonyl)phenylsulfonyl)thiazolidine-2-carbonyloxy)ethyl)pyridine 1-oxide] | < 100 | – |
| N#Cc1ccccc1S(=O)(=O)N1CCS[C@H]1C(=O)O[C@@H](Cc1c(Cl)c[n+]([O-])cc1Cl)c1ccc(OC(F)F)c(OCC2CC2)c1 [Compound 200, 3,5-dichloro-4-((S)-2-((S)-3-(2-cyanophenylsulfonyl)thiazolidine-2-carbonyloxy)-2-(3-(cyclopropylmethoxy)-4-(difluoromethoxy)phenyl)ethyl)pyridine 1-oxide] | 100 to 1000 | – |
| COc1ccc(S(=O)(=O)N2CCCC[C@H]2C(=O)O[C@@H](Cc2c(Cl)c[n+]([O-])cc2Cl)c2ccc(OC(F)F)c(OCC3CC3)c2)cc1C(=O)N(C)C [Compound 129, 3,5-dichloro-4-((S)-2-(3-(cyclopropylmethoxy)-4-(difluoromethoxy)phenyl)-2-((S)-1-(3-(dimethylcarbamoyl)-4-methoxyphenylsulfonyl)piperidine-2-carbonyloxy)ethyl)pyridine 1-oxide] | < 100 | – |
| O=C(O[C@@H](Cc1c(Cl)c[n+]([O-])cc1Cl)c1ccc(OC(F)F)c(OCC2CC2)c1)[C@@H]1CCCCN1S(=O)(=O)c1ccccc1 [Compound 114, 3,5-dichloro-4-((S)-2-(3-(cyclopropylmethoxy)-4-(difluoromethoxy)phenyl)-2-((S)-1-(phenylsulfonyl)piperidine-2-carbonyloxy)ethyl)pyridine 1-oxide] | 100 to 1000 | – |
| O=C(O[C@@H](Cc1c(Cl)c[n+]([O-])cc1Cl)c1ccc(OC(F)F)c(OCC2CC2)c1)C1SCCN1S(=O)(=O)c1ccccc1Cl (stereo partly drawn) [Compound 70, 3,5-dichloro-4-((2S)-2-(3-(2-chlorophenylsulfonyl)thiazolidine-2-carbonyloxy)-2-(3-(cyclopropylmethoxy)-4-(difluoromethoxy)phenyl)ethyl)pyridine 1-oxide] | 100 to 1000 | – |
